Measured values: ChEMBL document CHEMBL1201862, “PubChem BioAssay data set” (2004)
Activity calls are given as the source filed them. Unless noted, the rule behind the calls is not given here.

What was measured:
[1] = system: Erythrocyte; experiment: FACS-based assay to assess parasite growth inhibition 96 hr Measured in Cell-Based System Using Flow Cytometry - 2126-05_Inhibitor_Dose_DryPowder_Activity. [Related pubchem assays (depositor defined):AID488774]; format: functional; conditions: Homo sapiens
[2] = FACS-based assay to assess parasite growth inhibition 48 hr Measured in Cell-Based System Using Flow Cytometry - 2126-03_Inhibitor_Dose_DryPowder_Activity. [Related pubchem assays (depositor defined):AID488774]; format: functional; conditions: Homo sapiens
[3] = A cell-based HTS for delayed death inhibitors of the malarial parasite plastid Measured in Microorganism System Using Plate Reader - 2126-02_Inhibitor_Dose_DryPowder_Activity.; format: functional, organism-based
[4] = A cell-based HTS for delayed death inhibitors of the malarial parasite plastid Measured in Microorganism System Using Plate Reader - 2126-01_Inhibitor_Dose_DryPowder_Activity.; format: functional, organism-based
[5] = target: Melanin-concentrating hormone receptor 1 (Homo sapiens, UniProt Q99705); experiment: Late-stage fluorescence-based counterscreen for antagonists of the G-protein coupled receptor 7 (GPR7): cell-based dose response assay to identify antagonists of the melanin-concentrating hormone receptor 1 (MCHR1) Set 5.; format: functional
Chain of Melanin-concentrating hormone receptor 1 (Q99705 whole entry): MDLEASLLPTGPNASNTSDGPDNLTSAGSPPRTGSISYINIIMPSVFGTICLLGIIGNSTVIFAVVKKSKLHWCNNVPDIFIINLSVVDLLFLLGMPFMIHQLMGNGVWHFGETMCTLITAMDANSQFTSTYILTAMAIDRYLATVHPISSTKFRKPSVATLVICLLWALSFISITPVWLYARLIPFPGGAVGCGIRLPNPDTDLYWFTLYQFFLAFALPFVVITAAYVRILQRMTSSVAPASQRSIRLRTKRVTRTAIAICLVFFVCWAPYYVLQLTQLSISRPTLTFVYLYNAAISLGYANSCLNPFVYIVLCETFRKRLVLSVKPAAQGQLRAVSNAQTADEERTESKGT

Row | IC50 [5] | SMILES | AC50 [1] | AC50 [2] | AC50 [3] | AC50 [4]
1 | – | COCCOC(=O)N(C)C[C@@H]1OCCCC[C@H](C)Oc2ccc(NC(=O)Nc3ccccc3)cc2C(=O)N([C@@H](C)CO)C[C@H]1C | 13.4 µM (active) | 10.9 µM (active) | > 5 µM (inactive) | > 5 µM (inactive)
2 | > 20 µM (inactive) | CCc1cccc(Oc2c(Cl)cnn(Cc3cccc4ccccc34)c2=O)c1 | – | – | – | –
